From a compilation of properties of binary mixtures (doi:10.1007/s10953-014-0137-8)

Test: xn = mol fraction of the nth substance listed
Settings: 101 kPa

CCCC[n+]1ccn(C)c1.F[B-](F)(F)F + O
Settings	electrical conductivity [S/m]	speed of sound [m/s]
293.15 K, x2 = 0.0964	–	1580.4
293.15 K, x2 = 0.2639	–	1586.2
293.15 K, x2 = 0.3058	1	–
293.15 K, x2 = 0.3901	–	1590.2
293.15 K, x2 = 0.4991	1.67	–
293.15 K, x2 = 0.5121	–	1596.5
293.15 K, x2 = 0.6369	–	1601.7
293.15 K, x2 = 0.7002	3.02	1606.4
293.15 K, x2 = 0.7456	–	1608.6
293.15 K, x2 = 0.7866	–	1609.7
293.15 K, x2 = 0.9	–	1602.3
293.15 K, x2 = 0.9001	4.22	–
293.15 K, x2 = 0.9252	4.41	1593.6
293.15 K, x2 = 0.9496	4.31	1581.6
293.15 K, x2 = 0.9744	3.76	1559.6
298.15 K, x2 = 0.1014	0.595	–
298.15 K, x2 = 0.2639	–	1574.3
298.15 K, x2 = 0.3058	1.18	–
298.15 K, x2 = 0.3901	–	1579.2
298.15 K, x2 = 0.4991	1.97	–
298.15 K, x2 = 0.5121	–	1585.1
298.15 K, x2 = 0.6369	–	1591.6
298.15 K, x2 = 0.7002	3.41	1596.4
298.15 K, x2 = 0.7456	–	1598.6
298.15 K, x2 = 0.7866	–	1600.5
298.15 K, x2 = 0.9	–	1598.5
298.15 K, x2 = 0.9001	4.74	–
298.15 K, x2 = 0.9252	5.3	1592.2
298.15 K, x2 = 0.9744	4.22	1564.4
303.15 K, x2 = 0.0964	–	1557.7
303.15 K, x2 = 0.1014	0.709	–
303.15 K, x2 = 0.2639	–	1563
303.15 K, x2 = 0.3058	1.36	–
303.15 K, x2 = 0.3901	–	1567.7
303.15 K, x2 = 0.4991	2.2	–
303.15 K, x2 = 0.5121	–	1573.8
303.15 K, x2 = 0.6369	–	1581.8
303.15 K, x2 = 0.7002	3.97	1586.6
303.15 K, x2 = 0.7456	–	1590.2
303.15 K, x2 = 0.7866	–	1592.6
303.15 K, x2 = 0.8493	5.68	1595.5
303.15 K, x2 = 0.9001	5.67	–
303.15 K, x2 = 0.9496	5.39	1582.7
303.15 K, x2 = 0.9744	4.9	1567.9
308.15 K, x2 = 0.0964	–	1545.7
308.15 K, x2 = 0.1014	0.848	–
308.15 K, x2 = 0.2639	–	1551
308.15 K, x2 = 0.3058	1.51	–
308.15 K, x2 = 0.3901	–	1556.3
308.15 K, x2 = 0.4991	2.51	–
308.15 K, x2 = 0.5121	–	1561.8
308.15 K, x2 = 0.7866	–	1582.8
308.15 K, x2 = 0.8493	6.09	1587.5
308.15 K, x2 = 0.9	–	1588.3
308.15 K, x2 = 0.9001	6.39	–
308.15 K, x2 = 0.9252	6.6	1586
308.15 K, x2 = 0.9496	6.32	1581.6
308.15 K, x2 = 0.9744	5.08	1570.2
313.15 K, x2 = 0.0964	–	1534.6
313.15 K, x2 = 0.2639	–	1539.6
313.15 K, x2 = 0.3058	1.76	–
313.15 K, x2 = 0.3901	–	1544.9
313.15 K, x2 = 0.4991	2.79	–
313.15 K, x2 = 0.5121	–	1550.6
313.15 K, x2 = 0.6369	–	1559
313.15 K, x2 = 0.7002	4.67	1565
313.15 K, x2 = 0.7456	–	1569.3
313.15 K, x2 = 0.7866	–	1573.2
313.15 K, x2 = 0.9	–	1582.1
313.15 K, x2 = 0.9001	6.94	–
313.15 K, x2 = 0.9252	7.12	1581.6
313.15 K, x2 = 0.9496	6.65	1579.4
318.15 K, x2 = 0.1014	1.12	–
318.15 K, x2 = 0.4991	3.1	–
318.15 K, x2 = 0.5121	–	1539.3
318.15 K, x2 = 0.7002	5.29	1554
318.15 K, x2 = 0.7456	–	1558.4
318.15 K, x2 = 0.7866	–	1562
318.15 K, x2 = 0.8493	7.3	1570.2
318.15 K, x2 = 0.9001	7.66	–
318.15 K, x2 = 0.9252	7.99	1576.4
318.15 K, x2 = 0.9496	7.34	1576.4
318.15 K, x2 = 0.9744	6.16	1571.6
323.15 K, x2 = 0.0964	–	1511.5
323.15 K, x2 = 0.1014	1.37	–
323.15 K, x2 = 0.2639	–	1516.4
323.15 K, x2 = 0.3058	2.3	–
323.15 K, x2 = 0.3901	–	1522.1
323.15 K, x2 = 0.4991	3.31	–
323.15 K, x2 = 0.5121	–	1528
323.15 K, x2 = 0.6369	–	1534.5
323.15 K, x2 = 0.7002	5.74	1542.4
323.15 K, x2 = 0.7456	–	1546.8
323.15 K, x2 = 0.7866	–	1552.2
323.15 K, x2 = 0.9	–	1567.8
323.15 K, x2 = 0.9001	8.59	–
323.15 K, x2 = 0.9252	8.71	1570.5
